This passage reports DC50 and GI50 results from patent publication US11312702B2, “Substituted quinoline-8-carbonitrile derivatives having androgen receptor degradation activity and uses thereof” (ACCUTAR BIOTECHNOLOGY INC., priority 2019, dated 2022).

Holding throughout (assay type): cell-based
The target of test [1] is T1, androgen receptor (AR) (Homo sapiens, UniProt P10275, T878A).
T1 construct: endogenous in cells; host or cells: LNCAP
T1 sequence (P10275 1-920 T878A): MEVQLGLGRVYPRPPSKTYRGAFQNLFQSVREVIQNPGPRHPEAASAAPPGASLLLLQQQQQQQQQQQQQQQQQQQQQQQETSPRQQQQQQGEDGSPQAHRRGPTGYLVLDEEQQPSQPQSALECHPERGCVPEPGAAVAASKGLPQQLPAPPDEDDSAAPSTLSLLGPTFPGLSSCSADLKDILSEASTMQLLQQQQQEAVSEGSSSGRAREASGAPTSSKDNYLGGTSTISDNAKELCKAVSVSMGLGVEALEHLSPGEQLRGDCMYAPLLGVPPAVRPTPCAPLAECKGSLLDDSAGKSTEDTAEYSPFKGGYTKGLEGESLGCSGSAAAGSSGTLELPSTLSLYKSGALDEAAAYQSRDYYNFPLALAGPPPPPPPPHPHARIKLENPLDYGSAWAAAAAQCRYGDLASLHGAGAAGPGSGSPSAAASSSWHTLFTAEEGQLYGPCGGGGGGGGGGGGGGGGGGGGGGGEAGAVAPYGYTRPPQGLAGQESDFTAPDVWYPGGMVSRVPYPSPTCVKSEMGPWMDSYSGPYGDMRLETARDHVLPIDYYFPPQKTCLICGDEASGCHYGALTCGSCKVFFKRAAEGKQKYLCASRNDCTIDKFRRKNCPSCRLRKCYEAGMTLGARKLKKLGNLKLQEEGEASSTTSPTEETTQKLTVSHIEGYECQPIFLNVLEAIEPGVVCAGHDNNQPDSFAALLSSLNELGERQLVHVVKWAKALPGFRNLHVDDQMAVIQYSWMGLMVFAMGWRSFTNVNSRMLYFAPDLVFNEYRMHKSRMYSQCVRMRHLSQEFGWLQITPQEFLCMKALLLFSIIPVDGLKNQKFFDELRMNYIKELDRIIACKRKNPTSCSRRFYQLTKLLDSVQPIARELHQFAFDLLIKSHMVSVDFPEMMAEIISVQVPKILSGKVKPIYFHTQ
As to the kind of experiment: AR degradation activity in LNCAP cells (Western blot). The note with it: LNCAP cell line, 24 hours after administration; DC50 = concentration for 50% target protein degradation. The method, then:
(§1) LNCAP, VCAP and 22Rv1 cells were plated in 24-well plates at 1.5×10E5 cells/well in the RPMI growth medium containing 10% FBS and 1% Penicillin Streptomycin, and then incubated at 37° C. overnight. The following day, the test compound was administered to the cells by using 1000× compound stock solution prepared in DMSO at various concentrations. After administration of the compound, the cells were then incubated at 37° C. for 24 hours. Upon completion, the cells were washed with PBS and protein was collected in Laemmli sample buffer (1×; VWR International). Proteins in cell lysate were separated by SDS-PAGE and transferred to Odyssey nitrocellulose membranes (Licor) with iblot® dry blotting transfer system (ThermoFisher). Nonspecific binding was blocked by incubating membranes with Intercept Blocking Buffer (Licor) for 1 hour at room temperature with gentle shaking. The membranes were then incubated overnight at 4° C. with Primary antibodies rabbit anti-AR (1:1,000, Cell Signaling, 5153) and mouse anti-GAPDH (1:5,000, Santa Cruz Biotechnology, sc-47724) diluted in Intercept Blocking Buffer containing 0.1% Tween 20. After washing 3 times with TBS-T, the membranes were incubated with IRDye® […] goat anti-mouse IgG (1:20,000, Licor) or IRDye®8000W goat anti-rabbit IgG (1:20,000, Licor) for 1 hour. After TBS-T washes, membranes were rinsed in TBS and scanned on Odyssey® CLx Imaging System (Licor). The bands were quantified using Image Studio™ Software (Licor).
(§2) Table 4 summarizes the androgen receptor (AR) degradative activity and cell growth inhibition of exemplary compounds in (a) LNCAP, VCAP, and 22Rv1 cell lines 24 hours after administration of the compound; (b) RAMOS cell line 3 days after administration of the compound; and (c) VCAP cell line 6 days after administration of the compound. DC50: compound concentration needed for 50% target protein degradation.
Background: In western blotting, separated proteins are transferred to a membrane and probed.

The target of test [2] is T2, androgen receptor (AR) (Homo sapiens, UniProt P10275).
T2 construct: endogenous in cells; host or cells: VCAP
T2 sequence (P10275 1-920): T1 sequence (P10275 1-920 T878A) with A878T
As to the kind of experiment: AR degradation activity in VCAP cells (Western blot). The note with it: VCAP cell line, 24 hours after administration; DC50 = concentration for 50% target protein degradation. The procedure:
as §1, §2

Test [3] deals with androgen receptor (AR). The test can be described thus: AR degradation activity in 22Rv1 cells (Western blot). The note with it: 22Rv1 cell line, 24 hours after administration; DC50 = concentration for 50% target protein degradation. The procedure:
as §1, §2

The subject of another test is RAMOS cells. The test can be described thus: Cell growth inhibition for Ramos cells (CellTiter-Glo). The settings on record: Homo sapiens, 72 h; RAMOS cell line, 3 days after administration. The method, then:
RAMOS cells (ATCC) were seeded in 96-well plates at 16,000 cell/well in 90 μl of RPMI growth medium containing 10% Heat-Inactivated Fetal Bovine Serum and 1% Penicillin/Streptomycin. The test compound was administered to the cells by using 10× compound stock solution prepared in growth medium at various concentrations. After administration of the compound, cells were then incubated at 37° C. for 3 days. Before CellTiter-Glo assay, the plates were equilibrated at room temperature for approximately 10 minutes. 100 ul of CellTiter-Glo® Reagent (Promega) was added to each well. The plates were then incubated at room temperature for 10 minutes and luminescence was recorded by EnSpire plate reader (PerkinElmer).
as §2

The next test deals with VCAP cells. The test can be described thus: Cell growth inhibition for VCAP cells (CellTiter-Glo). The note with it: Homo sapiens, 144 h; VCAP cell line, 6 days after administration, 0.1 nM R1881, charcoal-stripped FBS. The procedure: VCAP cells (ATCC) were seeded in 96-well plates at 3000 cell/well in 80 μl of DMEM growth medium containing 10% charcoal-stripped FBS (CSS) and 1% Penicillin/Streptomycin. Cells were incubated at 37° C. overnight. The following day, the test compound was administered to the cells by using 10× compound stock solution prepared in growth medium at various concentrations. Four hours later, 0.1 nM R1881 (Sigma) was administered to the cells by using 10× compound stock solution prepared in growth medium. 0.1% DMSO with or without 0.1 nM R1881 was administered as control. Cells were then incubated at 37° C. for 6 days. Before CelTiter-Glo assay, the plates were equilibrated at room temperature for approximately 10 minutes. 100 ul of CellTiter-Glo® Reagent (Promega) was added to each well. The plates were then incubated at room temperature for 10 minutes and luminescence was recorded by EnSpire plate reader (PerkinElmer).
as §2
In general terms: ATP-based viability assays read luminescence as a measure of living cells.

Where a chain is given by its changes, count along the chain named.

For the compound `CC1(C)[C@H](NC(=O)c2ccc(N3CCC(CN4CCN(c5ccc6c(c5)CN([C@H]5CCC(=O)NC5=O)C6=O)CC4)CC3)cc2)C(C)(C)[C@H]1Oc1ccc(C#N)c2ncccc12` [Compound 2-49, N-((1,3-trans)-3-((8-cyanoquinolin-5-yl)oxy)-2,2,4,4-tetramethylcyclobutyl)-4-(4-((4-(2-((S)-2,6-dioxopiperidin-3-yl)-1-oxoisoindolin-5-yl)piperazin-1-yl)methyl)piperidin-1-yl)benzamide], the DC50 at androgen receptor (AR) [1], at androgen receptor (AR) [2] and in the test on androgen receptor (AR) [3] was 0.4 nM throughout. In addition, the GI50 with RAMOS cells was over 3000 nM; with VCAP cells, 8.2 nM.

Usually DC50 stands for the concentration giving 50% degradation. Usually GI50 stands for the concentration at which growth is held to half of that of the control. Low readings indicate greater sensitivity of the cells, high ones lower sensitivity of the cells.
